Each compound was assayed on Murine T-cell line (assay: Inhibition of proliferation of PMA and Ionomycin stimulated murine T cells). Conditions: Mus musculus.
Type: functional, cell-based

| SMILES | IC50 [nM] |
| --- | --- |
| CC[C@@H]1/C=C(\C)C[C@H](C)C[C@H](OC)[C@H]2O[C@@](O)(C(=O)C(=O)N3CCCC[C@H]3C(=O)O[C@H](/C(C)=C/[C@@H]3CC[C@@H](Oc4cc(C(F)(F)F)cc(C(F)(F)F)c4)[C@H](OC)C3)[C@H](C)[C@@H](O)CC1=O)[C@H](C)C[C@@H]2OC | 607 |
| CC[C@@H]1/C=C(\C)C[C@H](C)C[C@H](OC)[C@H]2O[C@@](O)(C(=O)C(=O)N3CCCC[C@H]3C(=O)O[C@H](/C(C)=C/[C@@H]3CC[C@@H](Oc4ccccc4)[C@H](OC)C3)[C@H](C)[C@@H](O)CC1=O)[C@H](C)C[C@@H]2OC | 5.4 |
| CC[C@@H]1/C=C(\C)C[C@H](C)C[C@H](OC)[C@H]2O[C@@](O)(C(=O)C(=O)N3CCCC[C@H]3C(=O)O[C@H](/C(C)=C/[C@@H]3CC[C@@H](Oc4ccc(C)cc4)[C@H](O)C3)[C@H](C)[C@@H](O)CC1=O)[C@H](C)C[C@@H]2OC | 6 |
| CC[C@@H]1/C=C(\C)C[C@H](C)C[C@H](OC)[C@H]2O[C@@](O)(C(=O)C(=O)N3CCCC[C@H]3C(=O)O[C@H](/C(C)=C/[C@@H]3CC[C@@H](O)[C@H](Oc4ccc(C)cc4)C3)[C@H](C)[C@@H](O)CC1=O)[C@H](C)C[C@@H]2OC | 2.6 |
| CC[C@@H]1/C=C(\C)C[C@H](C)C[C@H](OC)[C@H]2O[C@@](O)(C(=O)C(=O)N3CCCC[C@H]3C(=O)O[C@H](/C(C)=C/[C@@H]3CC[C@@H](Oc4ccc(F)cc4)[C@H](OC)C3)[C@H](C)[C@@H](O)CC1=O)[C@H](C)C[C@@H]2OC | 3.4 |
| CC[C@@H]1/C=C(\C)C[C@H](C)C[C@H](OC)[C@H]2O[C@@](O)(C(=O)C(=O)N3CCCC[C@H]3C(=O)O[C@H](/C(C)=C/[C@@H]3CC[C@@H](Oc4ccccc4)[C@H](O)C3)[C@H](C)[C@@H](O)CC1=O)[C@H](C)C[C@@H]2OC | 5.2 |
| CC[C@@H]1/C=C(\C)C[C@H](C)C[C@H](OC)[C@H]2O[C@@](O)(C(=O)C(=O)N3CCCC[C@H]3C(=O)O[C@H](/C(C)=C/[C@@H]3CC[C@@H](O)[C@H](Oc4ccc(O)cc4)C3)[C@H](C)[C@@H](O)CC1=O)[C@H](C)C[C@@H]2OC | 0.9 |
| CC[C@@H]1/C=C(\C)C[C@H](C)C[C@H](OC)[C@H]2O[C@@](O)(C(=O)C(=O)N3CCCC[C@H]3C(=O)O[C@H](/C(C)=C/[C@@H]3CC[C@@H](Oc4ccc(O)cc4)[C@H](O)C3)[C@H](C)[C@@H](O)CC1=O)[C@H](C)C[C@@H]2OC | 1.6 |
| CC[C@@H]1/C=C(\C)C[C@H](C)C[C@H](OC)[C@H]2O[C@@](O)(C(=O)C(=O)N3CCCC[C@H]3C(=O)O[C@H](/C(C)=C/[C@@H]3CC[C@@H](Oc4cccc(C)c4)[C@H](OC)C3)[C@H](C)[C@@H](O)CC1=O)[C@H](C)C[C@@H]2OC | 5.4 |
| CC[C@@H]1/C=C(\C)C[C@H](C)C[C@H](OC)[C@H]2O[C@@](O)(C(=O)C(=O)N3CCCC[C@H]3C(=O)O[C@H](/C(C)=C/[C@@H]3CC[C@@H](Oc4ccc(O)cc4)[C@H](OC)C3)[C@H](C)[C@@H](O)CC1=O)[C@H](C)C[C@@H]2OC | 0.8 |
| CC[C@@H]1/C=C(\C)C[C@H](C)C[C@H](OC)[C@H]2O[C@@](O)(C(=O)C(=O)N3CCCC[C@H]3C(=O)O[C@H](/C(C)=C/[C@@H]3CC[C@@H](O)[C@H](Oc4ccccc4)C3)[C@H](C)[C@@H](O)CC1=O)[C@H](C)C[C@@H]2OC | 3.2 |
| CC[C@@H]1/C=C(\C)C[C@H](C)C[C@H](OC)[C@H]2O[C@@](O)(C(=O)C(=O)N3CCCC[C@H]3C(=O)O[C@H](/C(C)=C/[C@@H]3CC[C@@H](O)[C@H](O)C3)[C@H](C)[C@@H](O)CC1=O)[C@H](C)C[C@@H]2OC | 1.63 |
| CC[C@@H]1/C=C(\C)C[C@H](C)C[C@H](OC)[C@H]2O[C@@](O)(C(=O)C(=O)N3CCCC[C@H]3C(=O)O[C@H](/C(C)=C/[C@@H]3CC[C@@H](O)[C@H](Oc4ccc(OC)cc4)C3)[C@H](C)[C@@H](O)CC1=O)[C@H](C)C[C@@H]2OC | 0.9 |
| CC[C@@H]1/C=C(\C)C[C@H](C)C[C@H](OC)[C@H]2O[C@@](O)(C(=O)C(=O)N3CCCC[C@H]3C(=O)O[C@H](/C(C)=C/[C@@H]3CC[C@@H](Oc4ccc(C(F)(F)F)cc4)[C@H](OC)C3)[C@H](C)[C@@H](O)CC1=O)[C@H](C)C[C@@H]2OC | 35.8 |
| CC[C@@H]1/C=C(\C)C[C@H](C)C[C@H](OC)[C@H]2O[C@@](O)(C(=O)C(=O)N3CCCC[C@H]3C(=O)O[C@H](/C(C)=C/[C@@H]3CC[C@@H](Oc4cccc(OC)c4)[C@H](OC)C3)[C@H](C)[C@@H](O)CC1=O)[C@H](C)C[C@@H]2OC | 3.4 |
| CC[C@@H]1/C=C(\C)C[C@H](C)C[C@H](OC)[C@H]2O[C@@](O)(C(=O)C(=O)N3CCCC[C@H]3C(=O)O[C@H](/C(C)=C/[C@@H]3CC[C@@H](Oc4ccc(SC)cc4)[C@H](OC)C3)[C@H](C)[C@@H](O)CC1=O)[C@H](C)C[C@@H]2OC | 2.6 |
| CC[C@@H]1/C=C(\C)C[C@H](C)C[C@H](OC)[C@H]2O[C@@](O)(C(=O)C(=O)N3CCCC[C@H]3C(=O)O[C@H](/C(C)=C/[C@@H]3CC[C@@H](Oc4cccc(O)c4)[C@H](OC)C3)[C@H](C)[C@@H](O)CC1=O)[C@H](C)C[C@@H]2OC | 1.7 |
| CC[C@@H]1/C=C(\C)C[C@H](C)C[C@H](OC)[C@H]2O[C@@](O)(C(=O)C(=O)N3CCCC[C@H]3C(=O)O[C@H](/C(C)=C/[C@@H]3CC[C@@H](Oc4ccc(N(C)C)cc4)[C@H](OC)C3)[C@H](C)[C@@H](O)CC1=O)[C@H](C)C[C@@H]2OC | 1.1 |
| CC[C@@H]1/C=C(\C)C[C@H](C)C[C@H](OC)[C@H]2O[C@@](O)(C(=O)C(=O)N3CCCC[C@H]3C(=O)O[C@H](/C(C)=C/[C@@H]3CC[C@@H](Oc4ccc(OC)cc4)[C@H](OC)C3)[C@H](C)[C@@H](O)CC1=O)[C@H](C)C[C@@H]2OC | 1.4 |
| CC[C@@H]1/C=C(\C)C[C@H](C)C[C@H](OC)[C@H]2O[C@@](O)(C(=O)C(=O)N3CCCC[C@H]3C(=O)O[C@H](/C(C)=C/[C@@H]3CC[C@@H](Oc4ccc(C)cc4)[C@H](OC)C3)[C@H](C)[C@@H](O)CC1=O)[C@H](C)C[C@@H]2OC | 2.7 |
| CC[C@@H]1/C=C(\C)C[C@H](C)C[C@H](OC)[C@H]2O[C@@](O)(C(=O)C(=O)N3CCCC[C@H]3C(=O)O[C@H](/C(C)=C/[C@@H]3CC[C@@H](Oc4ccc(OC)cc4)[C@H](O)C3)[C@H](C)[C@@H](O)CC1=O)[C@H](C)C[C@@H]2OC | 1.2 |
| CC[C@@H]1/C=C(\C)C[C@H](C)C[C@H](OC)[C@H]2O[C@@](O)(C(=O)C(=O)N3CCCC[C@H]3C(=O)O[C@H](/C(C)=C/[C@@H]3CC[C@@H](O)[C@H](OC)C3)[C@H](C)[C@@H](O)CC1=O)[C@H](C)C[C@@H]2OC [ASCOMYCIN] | 0.69 |

Reference: ChEMBL document CHEMBL1128651, “Preparation and in vitro activity of aryl ether derivatives of the FK-506 related immunosuppressive macrolides ascomycin and L-683,742” (Bioorg Med Chem Lett, 1995)
